In the NIST ThermoML archive (doi:10.1016/j.fluid.2007.04.030):

How the values were obtained:
[1] = 101 kPa, Liquid
[2] = xn = mol fraction of the nth substance listed; conditions: 101 kPa, Liquid

CCCCCCCCO [octan-1-ol]
[1]
Conditions	mass density [kg/m3]
283.15 K	832.13
288.15 K	828.71
293.15 K	825.27
298.15 K	821.81
303.15 K	818.33
308.15 K	814.84
313.15 K	811.31
318.15 K	807.76
323.15 K	804.19
328.15 K	800.58
333.15 K	796.93

CC(C)O [propan-2-ol]
[1]
Conditions	mass density [kg/m3]
283.15 K	793.31
288.15 K	789.22
293.15 K	785.08
298.15 K	780.87
303.15 K	776.6
308.15 K	772.25
313.15 K	767.81
318.15 K	763.28
323.15 K	758.64
328.15 K	753.88
333.15 K	749.01

CCCCCCO [hexan-1-ol]
[1]
Conditions	mass density [kg/m3]
283.15 K	827.82
288.15 K	824.25
293.15 K	820.65
298.15 K	817.03
303.15 K	813.39
308.15 K	809.71
313.15 K	806
318.15 K	802.27
323.15 K	798.49
328.15 K	794.67
333.15 K	790.8

CCCCO [butan-1-ol]
[1]
Conditions	mass density [kg/m3]
283.15 K	817.15
288.15 K	813.38
293.15 K	809.59
298.15 K	805.77
303.15 K	801.92
308.15 K	798.05
313.15 K	794.14
318.15 K	790.19
323.15 K	786.19
328.15 K	782.14
333.15 K	778.03

CCO [ethanol]
[1]
Conditions	mass density [kg/m3]
283.15 K	797.96
288.15 K	793.71
293.15 K	789.44
298.15 K	785.15
303.15 K	780.83
308.15 K	776.48
313.15 K	772.09
318.15 K	767.65
323.15 K	763.17
328.15 K	758.63
333.15 K	754.01

CCCO [propan-1-ol]
[1]
Conditions	mass density [kg/m3]
283.15 K	811.57
288.15 K	807.62
293.15 K	803.63
298.15 K	799.62
303.15 K	795.58
308.15 K	791.49
313.15 K	787.37
318.15 K	783.22
323.15 K	779.01
328.15 K	774.73
333.15 K	770.39

CCCCCO [pentan-1-ol]
[1]
Conditions	mass density [kg/m3]
283.15 K	822.42
288.15 K	818.79
293.15 K	815.13
298.15 K	811.45
303.15 K	807.74
308.15 K	804.01
313.15 K	800.24
318.15 K	796.43
323.15 K	792.57
328.15 K	788.67
333.15 K	784.72

CO [methanol]
[1]
Conditions	mass density [kg/m3]
283.15 K	801.08
288.15 K	796.41
293.15 K	791.71
298.15 K	787.01
303.15 K	782.29
308.15 K	777.55
313.15 K	772.78
318.15 K	767.97
323.15 K	763.12
328.15 K	758.23
333.15 K	753.29

COc1cc2c(cc1O)CC1c3c(cc(O)c(OC)c3-2)CCN1C (configuration not stated) [boldine] + CC(C)O
mass density [kg/m3], [2]
Conditions	x1 = 0.00187	x1 = 0.00371	x1 = 0.00563	x1 = 0.00735	x1 = 0.00957	x1 = 0.01158	x1 = 0.01364
283.15 K	796.84	800.29	803.77	807.03	810.42	814.44	818.2
288.15 K	792.75	796.21	799.68	802.94	806.37	810.34	814.09
293.15 K	788.61	792.06	795.53	798.79	802.25	806.19	809.91
298.15 K	784.39	787.84	791.32	794.57	798.05	801.97	805.66
303.15 K	780.11	783.56	787.04	790.29	793.78	797.69	801.36
308.15 K	775.77	779.22	782.69	785.94	789.45	793.35	797.01
313.15 K	771.34	774.79	778.25	781.51	785.03	788.91	792.59
318.15 K	766.8	770.26	773.72	776.98	780.51	784.38	788.09
323.15 K	762.17	765.62	769.08	772.35	775.88	779.76	783.56
328.15 K	757.42	760.87	764.34	767.61	771.14	775.02	778.85
333.15 K	752.55	756.01	759.48	762.75	766.27	770.17	773.99

COc1cc2c(cc1O)CC1c3c(cc(O)c(OC)c3-2)CCN1C (configuration not stated) [boldine] + CCCCCCO
mass density [kg/m3], [2]
Conditions	x1 = 0.00308	x1 = 0.00633	x1 = 0.00958
283.15 K	831.02	834.31	837.66
288.15 K	827.44	830.73	834.07
293.15 K	823.83	827.12	830.46
298.15 K	820.21	823.49	826.82
303.15 K	816.56	819.84	823.16
308.15 K	812.88	816.16	819.48
313.15 K	809.17	812.44	815.76
318.15 K	805.43	808.7	812.01
323.15 K	801.65	804.91	808.22
328.15 K	797.83	801.09	804.39
333.15 K	793.97	797.22	800.51

COc1cc2c(cc1O)CC1c3c(cc(O)c(OC)c3-2)CCN1C (configuration not stated) [boldine] + CCCCCO
mass density [kg/m3], [2]
Conditions	x1 = 0.00272	x1 = 0.00547	x1 = 0.00826
283.15 K	825.74	829.04	832.39
288.15 K	822.11	825.4	828.75
293.15 K	818.44	821.73	825.07
298.15 K	814.76	818.04	821.37
303.15 K	811.05	814.33	817.65
308.15 K	807.31	810.58	813.91
313.15 K	803.53	806.8	810.12
318.15 K	799.72	802.99	806.31
323.15 K	795.87	799.13	802.45
328.15 K	791.97	795.23	798.54
333.15 K	788.02	791.28	794.59

CCCCCO [pentan-1-ol] + COc1cc2c(cc1O)CC1c3c(cc(O)c(OC)c3-2)CCN1C
[2], x2 = 0
Conditions	mass density [kg/m3]
283.15 K	822.42
288.15 K	818.79
293.15 K	815.13
298.15 K	811.45
303.15 K	807.74
308.15 K	804.01
313.15 K	800.24
318.15 K	796.43
323.15 K	792.57
328.15 K	788.67
333.15 K	784.72
